According to US20220127580A1, “COMPOSITIONS AND METHODS FOR REPROGRAMING NON-HEPATOCYTE CELLS INTO HEPATOCYTE CELLS” (priority 2019, published 2022):
Read-outs that look alike come from different tables or passages of the source.

Assays:
[1] = cited from earlier work
[2] = system: hiHeps; test: Measurements of hepatic clearance in hiHeps suspension
Procedure: Briefly, a 1×10^6 cells/ml cell suspension and 2× drug solutions were prepared in incubation medium (William's E medium, 10 mM HEPES [pH 7.4], and 1% GlutaMAX). Reactions were started by adding 500 μl of drug solutions to 500 ul of hiHeps, giving a final substrate concentration of between 1 and 2 μM.
These concentrations were selected to be below the Km for most substrates but to still have sufficient analytical sensitivity. Reactions were performed in an orbital shaker in an incubator at 37° C. Then, 80 μl aliquots were removed at 0, 15, 30, 60, 90, 120, 180 and 240 minutes, and samples were quenched in 240 μl of methanol containing an isotope-labeled reference and frozen at −80° C. The substrates were quantified using the validated traditional LC-MS/MS methods described above. Assays were performed in triplicate.
The slope (−k) of the linear regression from the log [substrate] versus time plot was determined. […] No correction factor was made for any differential in vitro and in vivo binding, and the distribution of the drug between the plasma and blood was assumed to be unity.

[3] = system: CYP2B6
Procedure: (§1) Vehicle-treated groups were used to determine the basal activity. To measure the induced activity of PHHs, PHHs were cultured and induced under sandwich methods.

[4] = Toxicity assay in hiHeps (TC50); type: cell-based, human; conditions: human, hiHeps, 24 hours; values rounded for ease of use
Procedure: (§2) For the toxicity assay, hiHeps, HepG2 cells and PHHs were cultured in 96-well or 384-well plates. Compounds with 7-8 concentration dilutions were prepared in DMEM with 3% FBS to test HepG2 cells or in HCM to test PHHs and hiHeps. The final DMSO concentration under all conditions was consistent.
(§3) Compounds were tested in bipartite in a dilution series by half-log concentration increments. After the cells were treated with compounds for 24 hours, the supernatant was discarded and modified WEM (William's E medium supplemented with 2% B27 and 1% GlutaMAX) containing fluorescent probes was added to cells. […] After incubation for 30 minutes, the supernatant was discarded and cells were washed twice. Images were acquired using the Operetta High-Content Imaging System (PerkinElmer) with a 10× objective. […] After 1-4 hour chromogenic reaction in the incubator, the absorbance at 450 nm was read using a SpectraMax i3× (Molecular Devices). Image data were analyzed online using the Columbus Image Data Storage and Analysis System (PerkinElmer) with the following steps: (1) identification and counting of nuclei; (2) identification and counting of live cells labeled by CellTrace™ Calcein Red-Orange AM; and (3) identification and counting of live cells labeled by MitoTracker™ Deep Red FM. The viability of each parameter transformed from image data and the CCK-8 assay data were entered into Excel. The cellular viability of each parameter was expressed as the live cell ratio and normalized to the negative control. The TC50 values of these four parameters were calculated separately, and the minimum TC50 value was used as the final TC50.

[5] = system: HBV; test: HBV infection of hiHeps, response to anti-HBV compounds; type: cell-based
[6] = system: hiHeps
[7] = system: HepG2 cells; type: cell-based; conditions: human
Procedure: For the toxicity assay, hiHeps, HepG2 cells and PHHs were cultured in 96-well or 384-well plates. Compounds with 7-8 concentration dilutions were prepared in DMEM with 3% FBS to test HepG2 cells or in HCM to test PHHs and hiHeps. The final DMSO concentration under all conditions was consistent. The detailed information of the tested compounds is listed in Table 7 ((Seglen, et. Al., Methods in Cell Biology 13, 29-83 (1976)), Zhong et. Al., Clin Chim Acta. 412, 1905-1911 (2011))).
Compounds were tested in bipartite in a dilution series by half-log concentration increments. […] After 1-4 hour chromogenic reaction in the incubator, the absorbance at 450 nm was read using a SpectraMax i3× (Molecular Devices). Image data were analyzed online using the Columbus Image Data Storage and Analysis System (PerkinElmer) with the following steps: (1) identification and counting of nuclei; (2) identification and counting of live cells labeled by CellTrace™ Calcein Red-Orange AM; and (3) identification and counting of live cells labeled by MitoTracker™ Deep Red FM. […] The cellular viability of each parameter was expressed as the live cell ratio and normalized to the negative control. The TC50 values of these four parameters were calculated separately, and the minimum TC50 value was used as the final TC50.

[8] = system: CYP1A2
Procedure: as §1

[9] = system: hiHeps; test: Toxicity assay in hiHeps (TC50); type: cell-based, human
Procedure: as §2, §3

[10] = hiHeps suspension, substrate 1 μM, parent disappearance
[11] = scaled from hiHeps CLint, well stirred model, human

O=C(O)Cc1ccccc1Nc1c(Cl)cccc1Cl [Diclofenac]
Observed CLh in vivo ([1]; in vivo): 7.6
In vitro Clint hiHeps by [2, 10]: 4.5 μL/min/10^6
Scaled in vivo CLh by hiHeps [2, 11]: 7.4 ml/mim/kg

Cc1ncc2n1-c1ccc(Cl)cc1C(c1ccccc1F)=NC2 [Midazolam]
Observed CLh in vivo ([1]; observed in vivo, previous reports): 5.3
In vitro Clint hiHeps by ([2]; human, pH 7.4): 2.8 μL/min/10^6
Scaled in vivo CLh by hiHeps ([2]; human, pH 7.4): 5.3 ml/mim/kg

C=CCN1CC[C@]23c4c5ccc(O)c4O[C@H]2C(=O)CC[C@@]3(O)[C@H]1C5 [Naloxone]
In vitro Clint hiHeps by [2, 10]: 14.2 μL/min/10^6
Scaled in vivo CLh by hiHeps [2, 11]: 13 ml/mim/kg

CCOc1ccc(NC(C)=O)cc1 [Phenacetin]
In vitro Clint hiHeps by [2, 10]: 18.3 μL/min/10^6
Scaled in vivo CLh by hiHeps [2, 11]: 14.1 ml/mim/kg

CCC1(c2ccccc2)C(=O)NC(=O)NC1=O [Phenobarbital]
induced activity of CYP2B6 [3]: could be induced

CN(C)CCCN1c2ccccc2Sc2ccc(Cl)cc21 [chlorpromazine]
CC50 at 24 h [4]: ~25 µM

C=C1[C@H](CO)[C@@H](O)C[C@@H]1n1cnc2c(=O)[nH]c(N)nc21 [entecavir]
inhibition of HBV-DNA ([5]; HBV-infected hiHeps, LAM 1 μM, ETV 0.5 μM, especially during prolonged treatment): greatly inhibited

CC(C)C(=O)Nc1ccc([N+](=O)[O-])c(C(F)(F)F)c1 [flutamide]
toxicity after induction with rifampin [6]: increased after induction with rifampin
cell viability [7]: 100%

CC(=O)N1CCN(c2ccc(OCC3COC(Cn4ccnc4)(c4ccc(Cl)cc4Cl)O3)cc2)CC1 (centres unmarked) [ketoconazole]
rescue from rifampin-increased toxicity of AFB1 and flutamide [6]: rescued

Cc1c(OCC(F)(F)F)ccnc1C[S+]([O-])c1nc2ccccc2[nH]1 (centres unmarked) [lansoprazole]
induced activity of CYP1A2 [8]: could be induced

CO[C@H]1/C=C/O[C@@]2(C)Oc3c(C)c(O)c4c(O)c(c(/C=N/N5CCN(C)CC5)c(O)c4c3C2=O)NC(=O)/C(C)=C\C=C\[C@H](C)[C@H](O)[C@@H](C)[C@@H](O)[C@@H](C)[C@H](OC(C)=O)[C@@H]1C [rifampin]
CC50 at 24 h [4]: 100 µM

Cc1c(C)c2c(c(C)c1O)CCC(C)(COc1ccc(CC3SC(=O)NC3=O)cc1)O2 (centres unmarked) [troglitazone]
chronic toxicity (cell death) [9]: caused extensive cell death

O=c1cc(-c2ccccc2)oc2ccc3ccccc3c12 [β-naphthoflavone]
induced activity of CYP1A2 [8]: could be induced

aflatoxin B1
toxicity after induction with rifampin [6]: increased after induction with rifampin

interferon-alpha
effect on all major HBV markers ([5]; HBV-infected hiHeps, 1000 U/mL after infection): inhibitory effect
IFN-stimulated genes expression ([5]; hiHeps, 1000 U/mL): upregulation
